Entries after “also recorded” stand apart in the source; their conditions may differ.
What was measured:
[1] = Thermal stability of SOD mimetic compounds (retained SOD activity after thermal process in solvents/oils); format: physicochemical; settings: for decline in activity after thermal process: dehydrated ethanol, 60 minutes, FIG. 4; for retained activity / retained activity after thermal process: 120 minutes; for retained activity after thermal process: solvent not stated
Source text: (§1) In this example, Mn-cpx3, Mn-TBAP, Mn-TMPyP and Mn-TM-2-PyP were purchased from Aldrich Company, and were used as SOD mimetic compounds. These compounds are low-molecular complex having π-conjugate system. These compounds are basically water-soluble, and are also soluble in ethanol and in lubricating oils. In the case where an SOD mimetic compound was to be dissolved in ethylene glycol, and in a food oil containing vegetable sterol and glycerin ester as main components, the SOD mimetic compound was first dissolved in ethanol, and then the ethanol solution was added into ethylene glycol and a food oil. In the case where an SOD mimetic compound was to be dissolved in an engine oil (trade name: Eneos Motor Oil), the SOD mimetic compound was firstly dissolved in dimethyl sulfoxide (DMSO), and then the DMSO solution was added into the engine oil. As for the concentration conditions for thermal stability, investigation was performed in the presence of 1 to 10 μg/mL of an SOD mimetic compound in the water-based solution and 10 to 50 μg/mL of an SOD mimetic compound in the oil-based solution, with 10% of ethanol or DMSO, in the temperature range of 50 to 140° C.
The SOD activity of the SOD mimetic compounds was measured by using as an index the oxidation of a water-soluble tetrazolium salt (WST) by oxygen radicals generated from xanthin-xanthin oxidase. Specifically, the WST was used as a substrate of the oxidation by oxygen radicals, and the activity measurement was performed by using as an index the difference in the production of water-soluble tetrazolium formazan made by the presence and the absence of the SOD mimetic compound (see the following document: H. Ueda, D. Kawana, S. Maeda and M. Sawamura, Biosci. Biotechnol. Biochem., 63, 485-488, 1999). As the WST is oxidized to become water-soluble tetrazolium formazan, ultraviolet absorption occurs at 450 nm. Therefore, by measuring this ultraviolet absorption, the oxidation reaction by oxygen radicals can easily be measured. The activity measurement buffer was a 35 mM sodium carbonate solution (pH 10.2) containing 0.17 mM of xanthin and 0.11 mM of EDTA. The oxidation substrate used was 0.24 mM of the WST. The SOD mimetic compounds were dissolved in ethanol or DMSO. The concentrations thereof at the time of measurement of activity were 0.1 to 0.8 μg/mL.
In this example, the vegetable food oil used was diacyl glycerol. Mn-TMPyP retained 50% of the activity at 70° C. after 120 minutes, and 40% of the activity at 100° C. after 120 minutes. […] It has become clear that Mn-cpx3 is particularly excellent in the SOD-mimetic activity and the thermal stability in food oil.
With regard to Mn-cpx3, which was considered to be the most excellent in activity and thermal stability, the stability thereof in other oil solutions was investigated. […] However, in engine oil, the stability sharply declines to about 10 to 20%.

[2] = SOD activity measurement (WST oxidation by oxygen radicals from xanthin-xanthin oxidase, absorption at 450 nm); format: biochemical; settings: FIG. 2
Source text: In this activity measurement system, the WST used as the oxidation substrate can be considered to be a model compound as the substance that is subject to oxidation by oxygen radicals, that is, as the functional substance. […]

[3] = Solubility of SOD mimetic compounds in water, ethanol, oils; format: physicochemical; settings: solvent as stated in value
Source text: as §1

[4] = vegetable food oil (diacyl glycerol), 100° C., FIG. 5

Molecule	decline in activity after thermal process ([1]; 70° C.)	retained activity ([1]; vegetable food oil (diacyl glycerol), 70° C., FIG. 5)	retained activity [1, 4]	relative activity per unit weight with reference to the enzyme activity of the PEG-modified A. per SOD ([2]; after the process in ethanol at 50° C. for 10 minutes)	relative activity per unit weight with reference to the enzyme activity of the PEG-modified A. per SOD ([2]; in water)	retained activity after thermal process ([1]; 50° C.)	retained activity after thermal process ([1]; 100° C.)	retained activity ([1]; ethylene glycol, 140° C., FIG. 6)	retained activity ([1]; vegetable food oil (diacyl glycerol), 140° C., FIG. 5)	stability in water-based ethanol ([1]; water-based ethanol)	solubility [3]
O=C(O)c1ccc(C2=C3C=CC(=N3)C(c3ccc(C(=O)O)cc3)=c3ccc([nH]3)=C(c3ccc(C(=O)O)cc3)c3ccc([n-]3)C(c3ccc(C(=O)O)cc3)c3ccc2[n-]3)cc1.[Cl-].[Mn+3] (stereo not shown) [Mn-TBAP, Mn(III) tetrakis(4-benzoic acid)porphyrin chloride]	substantially no decline in the activity										
C[n+]1ccc(-c2c3nc(c(-c4cc[n+](C)cc4)c4ccc([nH]4)c(-c4cc[n+](C)cc4)c4nc(c(-c5cc[n+](C)cc5)c5ccc2[nH]5)C=C4)C=C3)cc1.[Mn+3] [Mn-TMPyP, Mn(III) tetrakis(1-methyl-4-pyridyl)porphyrin]		50%	40%								
manganese (Mn) complex of 7-hydroxyflavone [Mn-cpx3]	substantially no decline in the activity		60%	850 times	460 times	~100%	≥ 70%	70%	50%	highly stable	soluble in ethylene glycol and in vegetable oil; also recorded: soluble even in oil solutions
